Assay results reported in ChEMBL document CHEMBL3822432, “Antibacterial and anticancer activity of a series of novel peptides incorporating cyclic tetra-substituted C(α) amino acids” (Bioorg Med Chem, 2016).
In brackets after ≈: the same amount, converted by molar mass. Non-standard residues stand in square brackets, D forms with d. Residues, ends and D or L forms follow the SMILES beside them. ξ: configuration not given here. Ac6c = NC1(C(=O)O)CCCCC1; Ac5c = NC1(C(=O)O)CCCC1; ξOrn = NCCCC(N)C(=O)O; ξDab = NCCC(N)C(=O)O; ξDap = NCC(N)C(=O)O

Tests used:
[1] = system: Mycobacterium tuberculosis; assay: Antibacterial activity against ofloxacin-resistant Mycobacterium tuberculosis by two fold serial dilution method; type: functional
[2] = system: Mycobacterium tuberculosis; assay: Antibacterial activity against rifampin/isoniazid-resistant Mycobacterium tuberculosis CSU 45 SRI 1377 by two fold serial dilution method; type: functional

| Structure (SMILES) | MIC [1] [µM] | MIC [2] [µM] |
| --- | --- | --- |
| CC(=O)NCC(=O)N[C@@H](Cc1ccccc1)C(=O)NC1(C(=O)NCC(=O)N2Cc3ccccc3CC2C(=O)N[C@H](CCCCN)C(=O)NC2(C(=O)NCC(=O)N3Cc4ccccc4CC3C(=O)N[C@H](Cc3ccccc3)C(=O)NC3(C(=O)NCC(=O)N4Cc5ccccc5CC4C(=O)NCC(=O)N[C@H](CCCCN)C(=O)N4Cc5ccccc5CC4C(=O)N[C@H](CCCCN)C(=O)N[C@H](CCCCN)C(=O)N[C@H](CCCCN)C(=O)N[C@H](CCCCN)C(N)=O)CCCCC3)CCCCC2)CCCCC1 (some centres undefined) | 20.7 (≈ 50 µg/mL) | 20.7 (≈ 50 µg/mL) |
| CC(=O)NCC(=O)N[C@@H](Cc1ccccc1)C(=O)NC1(C(=O)NCC(=O)NC2(C(=O)N[C@@H](CCCCN)C(=O)NC3(C(=O)NCC(=O)NC4(C(=O)N[C@@H](Cc5ccccc5)C(=O)NC5(C(=O)NCC(=O)NC6(C(=O)NCC(=O)N[C@@H](CCCCN)C(=O)NC7(C(=O)N[C@@H](CCCCN)C(=O)N[C@@H](CCCCN)C(=O)N[C@@H](CCCCN)C(=O)N[C@@H](CCCCN)C(N)=O)CCCC7)CCCC6)CCCC5)CCCC4)CCCC3)CCCC2)CCCC1 (Ac-GF[Ac5c]G[Ac5c]K[Ac5c]G[Ac5c]F[Ac5c]G[Ac5c]GK[Ac5c]KKKK-NH2) | 22.9 (≈ 49.9 µg/mL) | 11.4 (≈ 25 µg/mL) |
| CC(=O)NCC(=O)N[C@@H](Cc1ccccc1)C(=O)NC1(C(=O)NCC(=O)NC2(C(=O)N[C@@H](CCCNC(=N)N)C(=O)NC3(C(=O)NCC(=O)NC4(C(=O)N[C@@H](Cc5ccccc5)C(=O)NC5(C(=O)NCC(=O)NC6(C(=O)NCC(=O)N[C@@H](CCCNC(=N)N)C(=O)NC7(C(=O)N[C@@H](CCCNC(=N)N)C(=O)N[C@@H](CCCNC(=N)N)C(=O)N[C@@H](CCCNC(=N)N)C(=O)N[C@@H](CCCNC(=N)N)C(N)=O)CCCC7)CCCC6)CCCC5)CCCC4)CCCC3)CCCC2)CCCC1 (Ac-GF[Ac5c]G[Ac5c]R[Ac5c]G[Ac5c]F[Ac5c]G[Ac5c]GR[Ac5c]RRRR-NH2) | > 43 | > 43 |
| CC(=O)NCC(=O)N[C@@H](Cc1ccccc1)C(=O)NC1(C(=O)NCC(=O)NC2(C(=O)N[C@@H](CCCCN)C(=O)NC3(C(=O)NCC(=O)NC4(C(=O)N[C@@H](Cc5ccccc5)C(=O)NC5(C(=O)NCC(=O)NC6(C(=O)NCC(=O)N[C@@H](CCCCN)C(=O)NC7(C(=O)N[C@@H](CCCCN)C(=O)N[C@@H](CCCCN)C(=O)N[C@@H](CCCCN)C(=O)N[C@@H](CCCCN)C(N)=O)CCCC7)CCCCC6)CCCC5)CCCCC4)CCCC3)CCCCC2)CCCC1 (Ac-GF[Ac5c]G[Ac6c]K[Ac5c]G[Ac6c]F[Ac5c]G[Ac6c]GK[Ac5c]KKKK-NH2) | 11.2 (≈ 25 µg/mL) | 11.2 (≈ 25 µg/mL) |
| CC(=O)NCC(=O)N[C@@H](Cc1ccccc1)C(=O)NC1(C(=O)NCC(=O)NC2(C(=O)N[C@@H](CCCCN)C(=O)N[C@@H](CCCCN)C(=O)NC3(C(=O)NCC(=O)NC4(C(=O)N[C@@H](Cc5ccccc5)C(=O)NC5(C(=O)NCC(=O)NC6(C(=O)NCC(=O)N[C@@H](CCCCN)C(=O)N[C@@H](CCCCN)C(=O)NC7(C(=O)N[C@@H](CCCCN)C(=O)N[C@@H](CCCCN)C(=O)N[C@@H](CCCCN)C(=O)N[C@@H](CCCCN)C(N)=O)CCCCC7)CCCCC6)CCCCC5)CCCCC4)CCCCC3)CCCCC2)CCCCC1 (Ac-GF[Ac6c]G[Ac6c]KK[Ac6c]G[Ac6c]F[Ac6c]G[Ac6c]GKK[Ac6c]KKKK-NH2) | 4.92 (≈ 12.5 µg/mL) | 4.92 (≈ 12.5 µg/mL) |
| CC(=O)NCC(=O)N[C@@H](Cc1ccccc1)C(=O)NC1(C(=O)NCC(=O)NC2(C(=O)N[C@@H](CCCNC(=N)N)C(=O)NC3(C(=O)NCC(=O)NC4(C(=O)N[C@@H](Cc5ccccc5)C(=O)NC5(C(=O)NCC(=O)NC6(C(=O)NCC(=O)N[C@@H](CCCNC(=N)N)C(=O)NC7(C(=O)N[C@@H](CCCNC(=N)N)C(=O)N[C@@H](CCCNC(=N)N)C(=O)N[C@@H](CCCNC(=N)N)C(=O)N[C@@H](CCCNC(=N)N)C(N)=O)CCCCC7)CCCCC6)CCCCC5)CCCCC4)CCCCC3)CCCCC2)CCCCC1 (Ac-GF[Ac6c]G[Ac6c]R[Ac6c]G[Ac6c]F[Ac6c]G[Ac6c]GR[Ac6c]RRRR-NH2) | 40.8 (≈ 99.9 µg/mL) | 10.2 (≈ 25 µg/mL) |
| CC(=O)NCC(=O)N[C@@H](Cc1ccccc1)C(=O)NC1(C(=O)NCC(=O)NC2(C(=O)NC(CCN)C(=O)NC3(C(=O)NCC(=O)NC4(C(=O)N[C@@H](Cc5ccccc5)C(=O)NC5(C(=O)NCC(=O)NC6(C(=O)NCC(=O)NC(CCN)C(=O)NC7(C(=O)NC(CCN)C(=O)NC(CCN)C(=O)NC(CCN)C(=O)NC(CCN)C(N)=O)CCCCC7)CCCCC6)CCCCC5)CCCCC4)CCCCC3)CCCCC2)CCCCC1 (some centres undefined) (Ac-GF[Ac6c]G[Ac6c][ξDab][Ac6c]G[Ac6c]F[Ac6c]G[Ac6c]G[ξDab][Ac6c][ξDab][ξDab][ξDab][ξDab]-NH2) | 25.6 (≈ 54.3 µg/mL) | 25.6 (≈ 54.3 µg/mL) |
| CC(=O)NCC(=O)N[C@@H](Cc1ccccc1)C(=O)NC1(C(=O)NCC(=O)NC2(C(=O)NC(CN)C(=O)NC3(C(=O)NCC(=O)NC4(C(=O)N[C@@H](Cc5ccccc5)C(=O)NC5(C(=O)NCC(=O)NC6(C(=O)NCC(=O)NC(CN)C(=O)NC7(C(=O)NC(CN)C(=O)NC(CN)C(=O)NC(CN)C(=O)NC(CN)C(N)=O)CCCCC7)CCCCC6)CCCCC5)CCCCC4)CCCCC3)CCCCC2)CCCCC1 (some centres undefined) (Ac-GF[Ac6c]G[Ac6c][ξDap][Ac6c]G[Ac6c]F[Ac6c]G[Ac6c]G[ξDap][Ac6c][ξDap][ξDap][ξDap][ξDap]-NH2) | 49.3 (≈ 100 µg/mL) | 49.3 (≈ 100 µg/mL) |
| CC(=O)NCC(=O)N[C@@H](Cc1ccccc1)C(=O)NC1(C(=O)NCC(=O)NC2(C(=O)NC(CCCN)C(=O)NC3(C(=O)NCC(=O)NC4(C(=O)N[C@@H](Cc5ccccc5)C(=O)NC5(C(=O)NCC(=O)NC6(C(=O)NCC(=O)NC(CCCN)C(=O)NC7(C(=O)NC(CCCN)C(=O)NC(CCCN)C(=O)NC(CCCN)C(=O)NC(CCCN)C(N)=O)CCCCC7)CCCCC6)CCCCC5)CCCCC4)CCCCC3)CCCCC2)CCCCC1 (some centres undefined) (Ac-GF[Ac6c]G[Ac6c][ξOrn][Ac6c]G[Ac6c]F[Ac6c]G[Ac6c]G[ξOrn][Ac6c][ξOrn][ξOrn][ξOrn][ξOrn]-NH2) | 11.4 (≈ 25 µg/mL) | 11.4 (≈ 25 µg/mL) |
| CC(=O)N[C@@H](CCCCN)C(=O)N[C@@H](CCCCN)C(=O)N[C@@H](CCCCN)C(=O)N[C@@H](CCCCN)C(=O)NCC(=O)N[C@@H](Cc1ccccc1)C(=O)NC1(C(=O)NCC(=O)NC2(C(=O)N[C@@H](CCCCN)C(=O)NC3(C(=O)NCC(=O)NC4(C(=O)N[C@@H](Cc5ccccc5)C(=O)NC5(C(=O)NCC(=O)NC6(C(=O)NCC(=O)N[C@@H](CCCCN)C(=O)NC7(C(N)=O)CCCCC7)CCCCC6)CCCCC5)CCCCC4)CCCCC3)CCCCC2)CCCCC1 (Ac-KKKKGF[Ac6c]G[Ac6c]K[Ac6c]G[Ac6c]F[Ac6c]G[Ac6c]GK[Ac6c]-NH2) | 5.47 (≈ 12.5 µg/mL) | 10.9 (≈ 25 µg/mL) |
| CC(=O)NCC(=O)N[C@H](Cc1ccccc1)C(=O)NC1(C(=O)NCC(=O)N2C(C(=O)N[C@@H](CCCCN)C(=O)NC3(C(=O)NCC(=O)N4C(C(=O)N[C@@H](Cc5ccccc5)C(=O)NC5(C(=O)NCC(=O)N6C(C(=O)NCC(=O)N[C@@H](CCCCN)C(=O)N7C(C(=O)N[C@H](CCCCN)C(=O)N[C@H](CCCCN)C(=O)N[C@H](CCCCN)C(=O)N[C@H](CCCCN)C(N)=O)CC8CCCCC87)CC7CCCCC76)CCCCC5)CC5CCCCC54)CCCCC3)CC3CCCCC32)CCCCC1 (stereo in doubt) | 20.9 (≈ 50 µg/mL) | 20.9 (≈ 50 µg/mL) |
| CN[C@@H]1[C@H](O[C@H]2[C@H](O[C@H]3[C@H](O)[C@@H](O)[C@H](N=C(N)N)[C@@H](O)[C@@H]3N=C(N)N)O[C@@H](C)[C@]2(O)C=O)O[C@@H](CO)[C@H](O)[C@H]1O [STREPTOMYCIN] | 3.4 (≈ 1.98 µg/mL) | 0.8 (≈ 0.465 µg/mL) |
